In assay [1] the target is T1, Eukaryotic translation initiation factor 2-alpha kinase 3 (Homo sapiens, UniProt Q9NZJ5).
T1 sequence (Q9NZJ5 whole entry): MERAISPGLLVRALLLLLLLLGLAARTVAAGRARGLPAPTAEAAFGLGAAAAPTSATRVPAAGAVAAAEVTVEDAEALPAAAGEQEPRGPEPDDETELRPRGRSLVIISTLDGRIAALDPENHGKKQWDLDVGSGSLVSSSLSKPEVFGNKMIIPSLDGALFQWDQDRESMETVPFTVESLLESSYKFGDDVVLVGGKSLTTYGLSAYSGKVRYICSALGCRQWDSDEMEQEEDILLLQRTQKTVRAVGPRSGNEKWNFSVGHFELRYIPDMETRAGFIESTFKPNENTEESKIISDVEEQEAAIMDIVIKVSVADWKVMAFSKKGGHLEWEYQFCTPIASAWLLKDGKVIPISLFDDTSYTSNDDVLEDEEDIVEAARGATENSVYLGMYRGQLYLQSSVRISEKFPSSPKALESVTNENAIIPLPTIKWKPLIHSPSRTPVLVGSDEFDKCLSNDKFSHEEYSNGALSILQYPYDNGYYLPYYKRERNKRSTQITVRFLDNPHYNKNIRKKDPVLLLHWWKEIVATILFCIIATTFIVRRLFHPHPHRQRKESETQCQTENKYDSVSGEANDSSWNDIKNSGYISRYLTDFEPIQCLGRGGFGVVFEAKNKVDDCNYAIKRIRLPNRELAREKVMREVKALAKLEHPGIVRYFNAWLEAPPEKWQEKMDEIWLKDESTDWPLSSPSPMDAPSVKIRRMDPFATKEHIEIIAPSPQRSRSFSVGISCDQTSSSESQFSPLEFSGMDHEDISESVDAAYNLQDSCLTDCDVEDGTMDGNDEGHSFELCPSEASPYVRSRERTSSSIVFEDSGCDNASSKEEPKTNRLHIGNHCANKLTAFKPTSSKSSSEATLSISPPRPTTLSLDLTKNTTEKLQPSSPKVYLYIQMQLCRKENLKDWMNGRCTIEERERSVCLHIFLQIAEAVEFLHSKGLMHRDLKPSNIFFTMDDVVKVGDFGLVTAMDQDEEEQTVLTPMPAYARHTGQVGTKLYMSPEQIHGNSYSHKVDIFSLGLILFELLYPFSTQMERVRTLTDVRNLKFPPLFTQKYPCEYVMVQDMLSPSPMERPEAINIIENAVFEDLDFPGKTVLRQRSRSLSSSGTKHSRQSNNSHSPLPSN
Kind of assay: Biochemical Assay for PERK. The procedure: Activity of PERK kinase was determined spectroscopically using a coupled pyruvate kinase/lactate dehydrogenase assay that continuously monitors the ATP hydrolysis-dependent oxidation of NADH (e.g., Schindler et al. Science (2000) 289: 1938-1942). Assays were conducted in 384-well plates ([…] final volume) using 10 nM PERK (from Beryllium), 0.25 mg/mL Myelin Basic Protein substrate, 1.5 units pyruvate kinase, 2.1 units lactate dehydrogenase, 1 mM phosphoenol pyruvate, 0.28 mM NADH and 1 mM ATP in assay buffer (100 mM Tris, pH 7.5, 15 mM MgCl2, 0.5 mM DTT, 0.004% (w/v) BSA, and 0.004% Triton X-100). Inhibition of PERK was measured by adding serial diluted test compound (final assay concentration of 1% DMSO). A decrease in absorption at 340 nm was monitored continuously for 6 hours at 30° C. on a multi-mode microplate reader (BioTek). The reaction rate was calculated using the 2-3 h time frame. The reaction rate at each concentration of compound was converted to percent inhibition using controls (i.e., reaction with no test compound and reaction with a known inhibitor) and IC50 values were calculated using software routines in Prism (GraphPad software).

The next assay deals with eIF-2-alpha kinase GCN2 (Homo sapiens, UniProt Q9P2K8). The experiment in a line: Biochemical Assay for GCN2. Here is the method: Activity of GCN2 kinase was determined using a TR-FRET kinase activity assay (e.g. Riddle et al. Analytical Biochemistry (2006) 356(1) 108-116). Assays were conducted in 384-well plates (13 μL assay volume) using 2 nM GCN2 (Carna Biosciences), 130 nM GFP-EIf2α (Invitrogen), 0.2 mg/mL E. coli tRNA (sigma) and 1 mM ATP in kinase buffer (Invitrogen). Inhibition of GCN2 was measured by adding serial diluted test compound (final assay concentration of 0.5% DMSO) followed by a 3-hour incubation. Tb-peIF2α (pSer52) antibody (Invitrogen) (2 nM final assay concentration) in kinase buffer containing EDTA (final assay concentration of 20 mM) was added. After a 60 min incubation at room temperature, TR-FRET was monitored using an excitation wavelength of 340 nm and emission wavelengths of 490 nm and 520 nm. The emission ratio (520/490) at each compound concentration of was converted to percent inhibition using controls (i.e., reaction with no test compound and reaction with a known inhibitor) and IC50 values were calculated by fitting a four-parameter sigmoidal curve to the data using Prism (GraphPad software).
Chain of eIF-2-alpha kinase GCN2 (Q9P2K8 whole entry): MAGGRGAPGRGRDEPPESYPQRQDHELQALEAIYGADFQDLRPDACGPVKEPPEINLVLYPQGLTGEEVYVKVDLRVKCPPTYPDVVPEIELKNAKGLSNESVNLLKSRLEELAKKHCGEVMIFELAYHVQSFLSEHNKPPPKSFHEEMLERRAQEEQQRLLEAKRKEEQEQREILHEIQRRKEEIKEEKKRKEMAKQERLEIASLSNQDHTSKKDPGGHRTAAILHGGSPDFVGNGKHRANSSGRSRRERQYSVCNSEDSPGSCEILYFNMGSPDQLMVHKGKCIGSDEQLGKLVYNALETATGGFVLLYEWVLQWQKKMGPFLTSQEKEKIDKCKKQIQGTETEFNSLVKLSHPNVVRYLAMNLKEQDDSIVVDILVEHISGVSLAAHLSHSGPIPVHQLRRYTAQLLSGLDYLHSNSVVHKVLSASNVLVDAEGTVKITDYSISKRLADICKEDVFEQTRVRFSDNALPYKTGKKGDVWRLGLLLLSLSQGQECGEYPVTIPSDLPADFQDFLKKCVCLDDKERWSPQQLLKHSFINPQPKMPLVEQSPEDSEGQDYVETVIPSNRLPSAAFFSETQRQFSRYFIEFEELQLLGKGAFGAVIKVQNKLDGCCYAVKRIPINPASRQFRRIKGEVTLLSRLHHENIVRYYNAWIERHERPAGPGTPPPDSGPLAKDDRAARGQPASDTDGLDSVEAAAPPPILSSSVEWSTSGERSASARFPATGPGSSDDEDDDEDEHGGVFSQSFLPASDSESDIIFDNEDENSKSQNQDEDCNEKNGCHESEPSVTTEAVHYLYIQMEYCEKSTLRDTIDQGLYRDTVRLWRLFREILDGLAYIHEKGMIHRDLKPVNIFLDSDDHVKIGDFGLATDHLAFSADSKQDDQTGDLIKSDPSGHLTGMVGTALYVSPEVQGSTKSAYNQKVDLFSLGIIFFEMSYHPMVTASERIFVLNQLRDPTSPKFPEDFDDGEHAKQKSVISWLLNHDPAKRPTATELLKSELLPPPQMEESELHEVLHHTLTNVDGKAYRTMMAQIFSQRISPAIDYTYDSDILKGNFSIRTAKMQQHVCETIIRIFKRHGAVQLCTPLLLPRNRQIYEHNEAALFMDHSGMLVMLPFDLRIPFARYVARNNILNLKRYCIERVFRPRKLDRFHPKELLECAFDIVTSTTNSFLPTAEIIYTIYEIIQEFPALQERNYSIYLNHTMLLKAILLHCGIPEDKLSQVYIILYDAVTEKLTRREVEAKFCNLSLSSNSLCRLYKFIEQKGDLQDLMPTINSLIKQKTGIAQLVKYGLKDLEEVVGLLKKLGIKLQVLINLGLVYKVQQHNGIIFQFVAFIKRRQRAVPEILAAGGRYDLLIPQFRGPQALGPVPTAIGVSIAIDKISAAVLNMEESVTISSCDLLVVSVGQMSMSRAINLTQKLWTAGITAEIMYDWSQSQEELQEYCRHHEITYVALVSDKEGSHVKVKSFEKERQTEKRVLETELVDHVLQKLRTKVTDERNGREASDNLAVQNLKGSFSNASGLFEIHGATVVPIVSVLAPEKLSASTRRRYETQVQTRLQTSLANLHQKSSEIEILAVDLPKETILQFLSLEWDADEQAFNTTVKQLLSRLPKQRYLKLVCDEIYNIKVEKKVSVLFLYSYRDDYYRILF

For 3 compounds, IC50 results are on record in BindingDB's records for patent US20230382915 (Deciphera Pharmaceuticals, 2023).

As a reminder, the IC50 is the point on the concentration scale where inhibition reaches its midpoint. A low value points to inhibition by little substance.

Bounds are passed on as bounds.

In assay [1], `Nc1nccc2scc(-c3cccc(NS(=O)(=O)c4cc(Cl)cc(CO)c4Cl)c3F)c12` [US20230382915, Example 11] had an IC50 below 100 nM.
The same measure, in the same setting: the result for `Nc1nccc2occ(-c3cccc(NS(=O)(=O)c4cc(Cl)cc(CO)c4Cl)c3F)c12` [US20230382915, Example 12] reads below 100 nM.
As for `CN1CCC(n2cc(-c3cccc(NS(=O)(=O)c4cc(Cl)cc(CO)c4Cl)c3F)c3c(N)ncnc32)CC1` [US20230382915, Example 17], the IC50 (at eIF-2-alpha kinase GCN2; in assay [1]) was below 100 nM in each case.
